Data from paper PMC12040169 (PLOS Biology, 2025).

assay: in vitro; conditions: human, hela cells, % viability

First: N/C(Cc1ccc(Cl)cc1Cl)=N\OC(=O)c1cccc([N+](=O)[O-])c1 [CBK264317]
Second: Cc1cc(OCC(=O)O/N=C(\N)Cc2ccc([N+](=O)[O-])cc2)ccc1Cl [CBK264322]
The viability at 28.5 h, 10 µM of the first is lower: 91% for the first, 98.2% for the second.

Going from O=C(NCc1ccncc1)Nc1ccc([N+](=O)[O-])cc1 [CBK264319] to O=C(/C=C/c1cccc([N+](=O)[O-])c1)NC(=S)Nc1ccc(-c2nc3ccccc3[nH]2)cc1 [CBK264376], the viability at 28.5 h, 10 µM falls from 110% to 102%.

First: Cc1cc(OCC(=O)Nc2nc[nH]n2)ccc1Cl [CBK264321]
Second: CC1=CC(c2ccc(Cl)cc2)n2nc(NC(=O)CCC(=O)O)nc2N1 (stereo not drawn) [CBK264331]
The viability at 28.5 h, 10 µM of the first is higher: 117% for the first, 100% for the second.

Compared with O=C(C1CCN(Cc2ccc(F)cc2)CC1)N1CCN(C/C=C/c2ccccc2)CC1 [CBK264325G], C/C(=C\c1ccccc1)CN1CCC(C(=O)N2CCN(Cc3ccc4c(c3)OCO4)CC2)CC1 [CBK264327] is lower in viability at 28.5 h, 10 µM: 96.5% for the first, 94.1% for the second.

Going from O=C(/C=C/c1ccccc1)Oc1cccc(NC(=O)C2CC(=O)N(c3ccccc3)C2)c1 (stereo not drawn) [CBK264330] to C(=C\c1ccccc1)/CSc1nnc(CSc2nc3ccccc3s2)n1-c1ccccc1 [CBK264467], the viability at 28.5 h, 10 µM falls from 109% to 101%.

Compared with OC(CN1CCN(c2cccc(Cl)c2)CC1)Cn1c2ccccc2c2ccccc21 (stereo not drawn) [CBK264333], CS(=O)(=O)N1CCN(CC(O)Cn2c3ccc(Cl)cc3c3cc(Cl)ccc32)CC1 (stereo not drawn) [CBK264381] is lower in viability at 28.5 h, 10 µM: 98.2% for the first, 94% for the second.

Going from O=C(O)CNS(=O)(=O)c1ccc2nc(O)c(O)nc2c1 [CBK264334] to Cc1ccc(/C=C/C(=O)O)cc1S(=O)(=O)NCCO [CBK264404], the viability at 28.5 h, 10 µM falls from 94.4% to 93.2%.

Going from COc1ccc(C(=O)NCCc2ccc(S(N)(=O)=O)cc2)cc1[N+](=O)[O-] [CBK264335] to NS(=O)(=O)c1ccc(CCNC(=O)c2ccc(Cl)c([N+](=O)[O-])c2)cc1 [CBK264395], the viability at 28.5 h, 10 µM falls from 99.8% to 94.8%.

Compared with Cc1ccc(NC(=S)NC(=O)Cc2ccccc2)c(O)c1 [CBK264337], CC(C)(C)c1ccc(O)c(NC(=S)NC(=O)c2ccccc2I)c1 [CBK264399] is higher in viability at 28.5 h, 10 µM: 106% for the first, 114% for the second.

Compared with NS(=O)(=O)c1ccc(NC(=O)c2ccc3ccccc3c2)cc1 [CBK264338], NS(=O)(=O)c1ccc(CNC(=O)C(Sc2ccccc2)c2ccccc2)cc1 (stereo not drawn) [CBK264355] is lower in viability at 28.5 h, 10 µM: 112% for the first, 91.5% for the second.

First: CC(C)(C)c1ccc(Oc2ccc(NC(=O)CCCC(=O)O)cc2)cc1 [CBK264339]
Second: COc1ccc(C(=O)/C=C(\Nc2cccc(C(F)(F)F)c2)C(=O)O)cc1 [CBK264387]
The viability at 28.5 h, 10 µM of the first is lower: 103% for the first, 107% for the second.

Going from COC(=O)c1ccc(N2CCN(C)CC2)c([N+](=O)[O-])c1 [CBK264341] to COC(=O)C1CCN(S(=O)(=O)c2ccccc2[N+](=O)[O-])CC1 [CBK264393], the viability at 28.5 h, 10 µM rises from 99.4% to 115%.

First: O=C(NC(=S)Nc1ccc2oc(-c3ccncc3)nc2c1)c1cc(Br)ccc1Cl [CBK264343]
Second: O=C(/C=C/c1ccco1)NC(=S)Nc1ccc(O)c(-c2nc3ccccc3s2)c1 [CBK264344]
The viability at 28.5 h, 10 µM of the first is higher: 87.8% for the first, 85.7% for the second.

First: O=C(CSc1nnc(-c2ccncc2)[nH]1)c1ccc(O)c(O)c1 [CBK264346]
Second: O=C(CSc1nnc(-c2ccncc2)[nH]1)c1ccc(O)cc1O [CBK264353]
The viability at 28.5 h, 10 µM of the first is lower: 86.6% for the first, 102% for the second.

First: CCC(C)c1ccc(NC(=O)CSc2nc3cccnc3[nH]2)cc1 (stereo not drawn) [CBK264349]
Second: CCOC(=O)c1ccc(NC(=O)C2CC(=O)NC(Nc3nc4ccccc4s3)=N2)cc1 (stereo not drawn) [CBK264396]
The viability at 28.5 h, 10 µM of the first is lower: 86.9% for the first, 100% for the second.

Compared with O=CN1CCN(S(=O)(=O)c2ccc3c(c2)Cc2cc(S(=O)(=O)N4CCN(C=O)CC4)ccc2-3)CC1 [CBK264351], CC(=O)Nc1ccc(S(=O)(=O)N2CCN(c3ccc([N+](=O)[O-])c(NC4CC4)c3)CC2)cc1 [CBK264439] is lower in viability at 28.5 h, 10 µM: 98.8% for the first, 97.3% for the second.

Going from Cn1c(SCC(=O)c2ccccc2)nnc1-c1ccc(NC(=O)c2ccccc2Cl)cc1 [CBK264357] to O=C(O)CSc1nnc(-c2ccncc2)n1-c1ccccc1 [CBK264426], the viability at 28.5 h, 10 µM rises from 95% to 109%.

Compared with Cc1cccc(NC(=O)C2CC(=O)N=C(Nc3nc4ccccc4s3)N2)c1 (stereo not drawn) [CBK264362], Cc1ccc(C(=O)/C=C\Nc2ccc(S(=O)(=O)Nc3cc(C)nc(C)n3)cc2)cc1 [CBK264384] is higher in viability at 28.5 h, 10 µM: 108% for the first, 124% for the second.

Compared with CN(CC(=O)OCC(=O)c1ccccc1)S(=O)(=O)c1ccc(Cl)cc1 [CBK264363], N/C(=N\OC(=O)CCCc1ccccc1)c1ccc(Cl)cc1 [CBK264454] is higher in viability at 28.5 h, 10 µM: 105% for the first, 107% for the second.

Compared with CN(C)S(=O)(=O)NCc1ccc2c(c1)OCO2 [CBK264364], CN(C)S(=O)(=O)Nc1ccccc1C(N)=O [CBK264382] is higher in viability at 28.5 h, 10 µM: 108% for the first, 111% for the second.

First: Cc1ccc(C(=O)/C=C(\Nc2cccc(C(F)(F)F)c2)C(=O)O)cc1 [CBK264366]
Second: COc1cccc(C(=O)Nc2ccc(O)c(C)c2)c1 [CBK264413]
The viability at 28.5 h, 10 µM of the first is higher: 101% for the first, 88.1% for the second.

Going from NS(=O)(=O)c1ccc(CCNS(=O)(=O)c2ccccc2[N+](=O)[O-])cc1 [CBK264369] to O=S(=O)(NCCc1nc2ccccc2[nH]1)c1ccc(Cl)c(Cl)c1 [CBK264416], the viability at 28.5 h, 10 µM falls from 111% to 93.5%.

Compared with Cc1ccc2nc(SCc3cccc([N+](=O)[O-])c3)nc(C)c2c1 [CBK264370], O=[N+]([O-])c1cccc(-c2noc(COc3ccc(Br)cc3Cl)n2)c1 [CBK264452] is lower in viability at 28.5 h, 10 µM: 106% for the first, 101% for the second.

Going from O=C(/C=C/c1ccco1)NC(=S)Nc1ccccc1[N+](=O)[O-] [CBK264375] to N#CCCN(Cc1ccccc1)C(=O)c1ccccc1[N+](=O)[O-] [CBK264434], the viability at 28.5 h, 10 µM falls from 117% to 92.6%.

Going from CCc1ccc(O)c(NC(=S)NC(=O)c2cccc3c(Br)cccc23)c1 [CBK264385] to CCc1ccc(OCC(=O)c2ccc(O)c(CN(C)C)c2O)cc1 [CBK264438C], the viability at 28.5 h, 10 µM rises from 111% to 116%.

Going from O=C(CSc1nnc(-c2ccco2)[nH]1)c1ccc(O)cc1O [CBK264392] to CN(C)CCCN1C(=O)C(O)=C(C(=O)c2ccc(F)cc2)C1c1ccco1 (stereo not drawn) [CBK264456], the viability at 28.5 h, 10 µM falls from 108% to 94.6%.

First: CC(CC(=O)O)CC(=O)NNc1ncc(Cl)cc1Cl (stereo not drawn) [CBK264398]
Second: COCC(=O)Nc1cc(OC)c(Cl)cc1OC [CBK264448]
The viability at 28.5 h, 10 µM of the first is lower: 102% for the first, 103% for the second.

Going from O=c1/c(=C/c2cccnc2)sc2n1CN(c1cccc([N+](=O)[O-])c1)CN=2 [CBK264401] to O=[N+]([O-])c1ccccc1/C=C\C=N\n1c(S)nnc1-c1ccc(Cl)cc1Cl [CBK264405], the viability at 28.5 h, 10 µM rises from 76.9% to 95%.

Compared with Cc1ccc(/C=C/C(=O)O)cc1S(=O)(=O)NC1CCS(=O)(=O)C1 (stereo not drawn) [CBK264409], Cc1ccc(/C=C/C(=O)O)cc1S(=O)(=O)N1CCCc2ccccc21 [CBK264425] is higher in viability at 28.5 h, 10 µM: 96.1% for the first, 101% for the second.

Going from O=[N+]([O-])c1ccc(N2CCN(S(=O)(=O)c3ccc4ccccc4c3)CC2)cc1NCc1ccco1 [CBK264417] to O=S(=O)(c1ccccc1)N(CC(O)CN1CCCC1)c1cccc2ccccc12 (stereo not drawn) [CBK264464C], the viability at 28.5 h, 10 µM falls from 108% to 93.9%.

Compared with O=C(O)COc1ccccc1/C=N/n1c(S)nnc1-c1ccc(Cl)cc1Cl [CBK264418], COc1ccc(-c2nnc(S)n2/N=C\c2ccc(C(=O)O)cc2)cc1 [CBK264419] is higher in viability at 28.5 h, 10 µM: 89.5% for the first, 92.4% for the second.

Compared with Nc1nc(SCCCN2C(=O)c3cccc4cccc(c34)C2=O)nc2sc3c(c12)CCCC3 [CBK264433], Cc1sc2nc(SCCCC(=O)NCCO)nc(N)c2c1C [CBK264482] is lower in viability at 28.5 h, 10 µM: 99.1% for the first, 96.2% for the second.

Compared with Oc1ccc(-c2n[nH]c(C(F)(F)F)c2Oc2ccc(F)cc2)c(O)c1 [CBK264440], Cc1[nH]nc(-c2ccc(O)c(C)c2O)c1Oc1ccc(F)cc1 [CBK264478] is higher in viability at 28.5 h, 10 µM: 89.5% for the first, 124% for the second.

First: COc1cccc(/C=C2/SC(=S)NC2=O)c1OCCCOc1ccc(C)cc1C [CBK264441]
Second: COc1cccc(/C=C2/SC(=S)N(C)C2=O)c1OCCCOc1ccc(C)cc1C [CBK264446]
The viability at 28.5 h, 10 µM of the first is lower: 94.8% for the first, 102% for the second.

Compared with NC(=O)c1cc([N+](=O)[O-])ccc1NCCN1C(=O)c2ccc(C(=O)O)cc2C1=O [CBK264444], CCOC(=O)c1ccc(-c2ccc(/C=N/N=C3\NC(=O)C(CC(=O)O)S3)o2)cc1 (stereo not drawn) [CBK264474] is higher in viability at 28.5 h, 10 µM: 105% for the first, 108% for the second.

Compared with Oc1cccc2ccc(/C=C/c3ccc(-c4ccccc4Cl)o3)nc12 [CBK264445], N#C/C(=C/c1ccc(-c2ccc(S(N)(=O)=O)cc2)o1)c1nc2ccccc2s1 [CBK264480] is lower in viability at 28.5 h, 10 µM: 97.7% for the first, 83.8% for the second.

Going from C(=C\C1Nc2ccccc2-c2nnc(SCc3ccccc3)nc2O1)/c1ccccc1 (stereo not drawn) [CBK264447] to O=C(O)CC1S/C(=N/N=C/c2cn(Cc3ccccc3)c3ccccc23)NC1=O (stereo not drawn) [CBK264466], the viability at 28.5 h, 10 µM falls from 112% to 102%.

First: O=C(O)/C=C\C(=O)Nc1ccc(OCC(=O)O)cc1 [CBK264449]
Second: O=C(CC1S/C(=N/N=C/c2ccc(-c3ccc(Cl)c([N+](=O)[O-])c3)o2)NC1=O)Nc1ccccc1 (stereo not drawn) [CBK264473]
The viability at 28.5 h, 10 µM of the first is higher: 102% for the first, 92.9% for the second.

Going from O=C(NCc1cccnc1)c1cc(S(=O)(=O)N2CCCC2)c(Cl)cc1Cl [CBK264455] to O=C(NCCCN1CCOCC1)c1ccc(/C=N/O)nc1 [CBK264468], the viability at 28.5 h, 10 µM falls from 108% to 107%.

Compared with CCCc1cc(=O)oc2cc(OCC(=O)OC(C)C)c(Cl)cc12 [CBK264459], Cc1ccc(C(=O)C2=C(O)C(=O)N(CCCn3ccnc3)C2c2ccncc2)cc1 (stereo not drawn) [CBK264476] is higher in viability at 28.5 h, 10 µM: 96.9% for the first, 106% for the second.

With O=C(C1=C(O)C(=O)N(CCCn2ccnc2)C1c1ccccc1)c1cccs1 (stereo not drawn) [CBK264484] the viability at 28.5 h, 10 µM was 110%.

same assay, conditions: human, hela cells, % viability, bulk resorufin, single well

First: CN1CCN(c2ccc(C=C3C(=O)NC(=S)NC3=O)o2)CC1 [CBK264367]
Second: CCOc1cc(/C=C2/C(=O)NC(=S)N(c3ccccc3CC)C2=O)ccc1OC(C)C(=O)O (stereo not drawn) [CBK264460]
The viability at 28.5 h, 10 µM of the first is higher: 98.6% for the first, 97.8% for the second.

CN1C(=O)C(=CNCCCC(=O)O)C(=O)N(C)C1=O [CBK264420] gave a viability at 28.5 h, 10 µM of 90.4%.
